Test results taken from patent US6541495B1, “Carboxylic acid derivatives as inhibitors of hyperproliferation diseases” (Pfizer INC, priority 1999, dated 2003).

Target: T1, VEGF/GAG (glycosaminoglycan) binding (purified VEGF165, [125I]heparin-16-mer) (Homo sapiens, UniProt P15692)
T1 construct: purchased Repligen, Inc
T1 sequence (P15692 27-191 isoform P15692-4): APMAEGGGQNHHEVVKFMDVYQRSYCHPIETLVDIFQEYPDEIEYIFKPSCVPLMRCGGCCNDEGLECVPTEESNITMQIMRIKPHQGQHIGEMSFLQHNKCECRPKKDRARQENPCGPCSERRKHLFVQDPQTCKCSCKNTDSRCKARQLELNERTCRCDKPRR
Assay: VEGF/GAG (glycosaminoglycan) binding inhibition, [125I]heparin-16-mer filter plate assay
Conditions: activity data for representative compounds of formula I; in vitro VEGF165 / [125I]heparin-16-mer binding, 60 minutes at room temperature
Description: The in vitro activity of the compounds of formula I in inhibiting VEGF/GAG (glycosaminoglycan) binding may be measured using the assay described in U.S. Pat. No. 5,795,860, the subject matter of which is incorporated herein by reference.
Using mixed cellulose ester 96-well filter plates, 150 μL of Dulbeccos PBS (phosphate buffered saline) containing 10% ovalbumin is added. Compound (5.0 μL) is added at a final concentration of 1.8 μM. Compounds are dissolved in 8% DMSO (final DMSO concentration is 0.16%) and tested at concentrations of 32, 10, 3.2, 1.0, 0.32 and 0.10 μM. A mixture of [^125I]heparin-16-mer (4500 cpm per well), purified VEGF165 (20 nM final concentration/well, prepared by Repligen, Inc.) and Dulbeccos PBS with 10% ovalbumin is added to the 96-well plate in a volume of 100 μL. Nonspecific binding is defined using 10 μM heparin-sodium from porcine intestinal mucosa. The assay plate is incubated for 60 minutes at room temperature, filtered using a Millipore filtration apparatus, the plastic bottom plate is removed and the filter plate is allowed to completely dry. The plate bottom is sealed with plastic plate seal and 25 μL of scintillation cocktail is added to each well. The top plate is sealed and is counted for radioactivity on a Microbeta Scintillation Counter. The assay is run in a final volume of 250 μL.

Compound	IC50 [µM]
Cc1oc(-c2ccccc2)nc1Cc1cc2cc(CC(OCCCO)C(=O)O)ccc2o1 (stereo not drawn) [2-(3-Hydroxy-propoxy)-3-[2-(5-methyl-2-phenyl-oxazol-4-ylmethyl)-benzofuran-5-yl]-propionic acid]	14
C=CCOC(Cc1ccc2oc(Cc3nc(-c4ccccc4)oc3C)cc2c1)C(=O)O (stereo not drawn) [2-Allyloxy-3-[2-(5-methyl-2-phenyl-oxazol-4-ylmethyl)-benzofuran-5-yl]-propionic acid]	13
CSC(Cc1ccc2oc(Cc3nc(-c4cccc(C)c4)oc3C)cc2c1)C(=O)O (stereo not drawn) [2-Methylsulfanyl-3-[2-(5-methyl-2-m-tolyl-oxazol-4-ylmethyl)-benzofuran-5-yl]-propionic acid]	8
Cc1oc(-c2ccccc2)nc1Cc1cc2cc(CCC(=O)O)ccc2o1 [3-[2-(5-Methyl-2-phenyl-oxazol-4-ylmethyl)-benzofuran-5-yl]-propionic acid]	6.8
CSC(Cc1ccc(OCCc2nc(-c3ccccc3)oc2C)cc1)C(=O)O (stereo not drawn) [3-{4-[2-(5-Methyl-2-phenyl-oxazol-4-yl)-ethoxy]-phenyl}-2-methylsulfanyl-propionic acid]	4.5

Now those with a lower IC50, led by results:

IC50 [µM]	Compound
2.6	Cc1oc(-c2ccccc2)nc1Cc1cc2cc(CC(SCc3ccccc3)C(=O)O)ccc2o1 (stereo not drawn) [2-Benzylsulfanyl-3-[2-(5-methyl-2-phenyl-oxazol-4-ylmethyl)-benzofuran-5-yl]-propionic acid]
0.8	CCCCCCCCSC(Cc1ccc2oc(Cc3nc(-c4ccccc4)oc3C)cc2c1)C(=O)O (stereo not drawn) [3-[2-(5-Methyl-2-phenyl-oxazol-4-ylmethyl)-benzofuran-5-yl]-2-octylsulfanyl-propionic acid]
2	Cc1oc(-c2ccccc2)nc1Cc1cc2cc(CC(Oc3ccccc3)C(=O)O)ccc2o1 (stereo not drawn) [3-[2-(5-Methyl-2-phenyl-oxazol-4-ylmethyl)-benzofuran-5-yl]-2-phenoxy-propionic acid]
1.5	CCCSC(Cc1ccc2oc(Cc3nc(-c4ccccc4)oc3C)cc2c1)C(=O)O (stereo not drawn) [3-[2-(5-Methyl-2-phenyl-oxazol-4-ylmethyl)-benzofuran-5-yl]-2-propylsulfanyl-propionic acid]
